One data set has as its system GIP receptor. Conditions: humans, co-infusion with GIP(3-30)NH2; cited from earlier work. An excerpt: It has been shown that rat and the human GIP(3-30)NH2 are effective antagonists in vivo [48, 49], so we would expect the mouse GIP(3-30)NH2 to behave in a similar manner. […] In humans GIP-induced insulin secretion was reduced by 82% during co-infusion with GIP(3-30)NH2 [48].

For data set [1] the following is noted: cited from earlier work. The source says: Given the strong in vitro pharmacological data and our interest in other metabolic parameters such as adiposity and insulin se ...
Another data set addresses T1, mouse GIP receptor (Mus musculus, UniProt Q0P543).
T1 construct: host or cells: CHO-K1 (cAMP Hunter CHO-K1 GIPR Gs cell line)
T1 sequence (Q0P543 19-460): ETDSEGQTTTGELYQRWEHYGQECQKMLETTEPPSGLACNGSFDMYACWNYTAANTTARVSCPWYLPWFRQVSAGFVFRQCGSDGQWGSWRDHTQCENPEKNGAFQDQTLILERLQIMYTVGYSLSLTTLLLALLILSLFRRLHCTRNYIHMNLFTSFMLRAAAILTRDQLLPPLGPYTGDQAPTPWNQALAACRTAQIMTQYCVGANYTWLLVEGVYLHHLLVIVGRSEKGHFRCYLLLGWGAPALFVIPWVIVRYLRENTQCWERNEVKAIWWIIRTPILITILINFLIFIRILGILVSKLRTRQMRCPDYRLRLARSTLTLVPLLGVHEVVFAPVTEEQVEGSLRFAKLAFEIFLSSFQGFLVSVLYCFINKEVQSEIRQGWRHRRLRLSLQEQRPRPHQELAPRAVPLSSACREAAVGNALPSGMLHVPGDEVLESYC
Put plainly: Antagonist mode cAMP assay: inhibition of mouse GIP-induced cAMP production in CHO-K1 GIPR Gs cells. Conditions: curve fit value in plot, unit from legend, read-out: IC50 (printed on plot, Fig 1A/1B). In kind it is cell-based. Here is the method: Each peptide was tested for its ability to activate or inhibit the mouse GIP receptor using the cAMP Hunter™ CHO-K1 GIPR Gs cell line, in combination with the Hit Hunter® cAMP XP+ assay for determining cAMP, according to the manufacturer’s instructions (Eurofins DiscoverX Corporation).
Fig 1 Effects of acute GIPR antagonism on glucose homeostasis and insulin secretion. GIPA-1 and GIPA-2 are antagonists of mouse GIPR. […] IC50 values (μM) are indicated on the plots. (C-J) Acute effects of GIPA-1 and GIPA-2 on glucose homeostasis and insulin secretion in lean mice. Oral glucose tolerance tests (C and E), the corresponding areas under the curve (AUC) (D and F) and insulin responses (I) following subcutaneous injections of vehicle, 1,5 and 10 mg/kg GIPA-1 (C and D) or vehicle, 1,5 and 10 mg/kg GIPA-2 (E and F) before an oral glucose administration (1.5 g/kg). […] Statistical analysis was calculated using two-way ANOVA with Tukey’s post-hoc test (C, E, G and J) and one-way ANOVA with Dunnett’s post-hoc test (D, F, H, I). *: p< 0.05, **: p < 0.01, ***: p < 0.001, ****: p<0.0001 compared to vehicle.
We began by characterising the receptor-interaction properties of GIPA-1 and GIPA-2. Their agonist and antagonist potencies were measured via a cAMP production assay in CHO-K1 cells overexpressing the mouse GIPR.

The next data set deals with rats. The conditions noted are these: 25 nmol/kg b.w. for 3 weeks, cited from earlier work. The source says:
Further controversy is evident with peptide based GIPR antagonists. […] In contrast, a palmitoyl variant of Pro^3GIP(3–30) ... || It has been shown that rat and the human GIP(3-30)NH2 are effective antagonists in vivo [48, 49], so we would expect the mouse GIP(3-30)NH2 to behave in a similar manner. […] In humans GIP-induced insulin secretion was reduced by 82% during co-infusion with GIP(3-30)NH2 [48].

The next data set deals with GIPR. Conditions: cited from earlier work. The source says: Further controversy is evident with peptide based GIPR antagonists. […] In contrast, a palmitoyl variant of Pro^3GIP(3–30) ... || The GLP-1-agonist-GIPR-antagonist combination therapy reported in the present study was born from evidence of compromised gut-hormone function in obesity and diabetes as well as their postulated role in driving the beneficial metabolic effects following bariatric surgery. Indeed, GLP-1 secretion is enhanced after bariatric surgery which is thought to be a key component for the resolution of diabetes. In contrast, the controversial role of the GIP signalling pathway in dysmetabolic states has led to the pursuit of both agonist and antagonist approaches. There is a compelling ...

Data set [2] relates to lean male C57BL/6JRj mice. Nature of the data set: Acute intraperitoneal glucose tolerance test (IPGTT) with GIPA-2 and mouse GIP in lean mice. Conditions: n = 8; for plasma insulin: 0.1 mg/kg mouse GIP SC. In kind it is in vivo. Here is the method:
The effects of GIPA-2 and mouse GIP alone or in combination were studied in 10-week old lean male C57BL/6JRj mice. Animals were fasted 4 hours prior to an intraperitoneal glucose bolus (1.5 g/kg). Sixty minutes prior to glucose load animals received subcutaneous injection of 5mg/kg GIPA-2, while animals receiving mouse GIP (0.1 mg/kg) were dosed subcutaneously 15 minutes prior to glucose load. Blood glucose was measured just before the administration of GIPA-2 and at 0, 15, 30 60, 120, 180 and 240 min. Plasma insulin was measured at 0, 15 and 240 min.
Fig 1 Effects of acute GIPR antagonism on glucose homeostasis and insulin secretion. GIPA-1 and GIPA-2 are antagonists of mouse GIPR. […] IC50 values (μM) are indicated on the plots. (C-J) Acute effects of GIPA-1 and GIPA-2 on glucose homeostasis and insulin secretion in lean mice. Oral glucose tolerance tests (C and E), the corresponding areas under the curve (AUC) (D and F) and insulin responses (I) following subcutaneous injections of vehicle, 1,5 and 10 mg/kg GIPA-1 (C and D) or vehicle, 1,5 and 10 mg/kg GIPA-2 (E and F) before an oral glucose administration (1.5 g/kg). (G, H and J) Acute effect of GIPA-2 alone or in combination with mouse GIP on glucose homeostasis and insulin secretion in lean mice. Intraperitoneal glucose tolerance test cute IPGTT (G), the corresponding AUC (H) and insulin response (J) following subcutaneous injections of vehicle, 0.1 mg/kg mouse GIP, 5mg/kg GIPA-2, and combination of both. Group sizes are n = 8, and data are represented as mean ± SEM. Statistical analysis was calculated using two-way ANOVA with Tukey’s post-hoc test (C, E, G and J) and one-way ANOVA with Dunnett’s post-hoc test (D, F, H, I). *: p< 0.05, **: p < 0.01, ***: p < 0.001, ****: p<0.0001 compared to vehicle.

pIC50: −log10 of the molar value. Starred links: 1 amine or outer side, 2 acyl side, 3 side chain; linkers in the order of their positions; H or OH if unused. Residues, ends and D or L forms follow the SMILES beside them. Groups on a side chain read outwards from the residue. No end group written: not given here. *: point of attachment. γGlu = O=C(O)[C@H](CCC(=O)[*:2])N[*:1]; Palmitoyl = CCCCCCCCCCCCCCCC(=O)*

Turning to “human GIP(3-30)NH2: the human peptide sequence of GIP(3-30)NH2 (EGTFISDYSIAMDKIHQQDFVNWLLAQK-NH2; UniProt P09681 54-81, looked up, fragment)”, the “reduction of GIP-induced insulin secretion” value with GIP receptor is listed as 82%. Further, in data set [1] (human peptide sequence, in humans), the plasma elimination half-life is 7.7 ± 1.4 min.

Consider `CCCCCCCCCCCCCCCC(=O)N[C@@H](CCC(=O)N[C@@H](CCC(=O)NCCCC[C@H](NC(=O)[C@H](CC(=O)O)NC(=O)[C@H](CO)NC(=O)[C@@H](NC(=O)[C@H](Cc1ccccc1)NC(=O)[C@@H](NC(C)=O)[C@@H](C)O)[C@@H](C)CC)C(=O)N[C@@H](CO)C(=O)N[C@H](C(=O)N[C@@H](C)C(=O)N[C@@H](CCSC)C(=O)N[C@@H](CC(=O)O)C(=O)N[C@@H](CCCCN)C(=O)N[C@H](C(=O)N[C@@H](CCCNC(=N)N)C(=O)N[C@@H](CCC(N)=O)C(=O)N[C@@H](CCC(N)=O)C(=O)N[C@@H](CC(=O)O)C(=O)N[C@@H](Cc1ccccc1)C(=O)N[C@H](C(=O)N[C@@H](CC(N)=O)C(=O)N[C@@H](Cc1c[nH]c2ccccc12)C(=O)N[C@@H](CC(C)C)C(=O)N[C@@H](CC(C)C)C(=O)N[C@@H](C)C(=O)N[C@@H](CCC(N)=O)C(=O)N[C@@H](CCCCN)C(=O)NCC(=O)N[C@@H](CCCCN)C(=O)N[C@@H](CCCCN)C(=O)N[C@@H](CC(N)=O)C(=O)N[C@@H](CC(=O)O)C(=O)N[C@@H](Cc1c[nH]c2ccccc12)C(=O)N[C@@H](CCCCN)C(=O)N[C@@H](Cc1c[nH]cn1)C(=O)N[C@@H](CC(N)=O)C(=O)N[C@H](C(=O)N[C@H](C(=O)N[C@@H](CCC(N)=O)C(=O)O)[C@@H](C)O)[C@@H](C)CC)C(C)C)[C@@H](C)CC)[C@@H](C)CC)C(=O)O)C(=O)O` [GIPA-2, N^αAc-K10[γEγE-C16]-Arg18-hGIP(5–42)] (Ac-TFISDK([γGlu-γGlu-Palmitoyl])SIAMDKIRQQDFVNWLLAQKGKKNDWKHNITQ-OH), for which, in data set [1], the “plasma half-life and in vivo duration of action” value is “extended plasma half-life”. The pIC50 at mouse GIP receptor is 8.53.

Take “rat GIP(3–30)NH2: GIPR antagonist, rat GIP(3–30)NH2”: the “body weight, fat mass, triglycerides, LPL, leptin” value in the data set on rats (sub-chronic dosing, rats fed normal chow) is “significantly increased body weight, body fat mass, triglycerides, LPL, and leptin levels”. Besides, in the data set with rats (subchronic treatment), the “food intake or bone resorption” value is listed as “did not modify food intake or bone resorption”.

On to `CC[C@H](C)[C@H](NC(=O)[C@H](CO)NC(=O)[C@H](Cc1ccc(O)cc1)NC(=O)[C@H](CC(=O)O)NC(=O)[C@H](CO)NC(=O)[C@@H](NC(=O)[C@H](Cc1ccccc1)NC(=O)[C@@H](NC(=O)CNC(=O)[C@@H](N)CCC(=O)O)[C@@H](C)O)[C@@H](C)CC)C(=O)N[C@@H](C)C(=O)N[C@@H](CCSC)C(=O)N[C@@H](CC(=O)O)C(=O)N[C@@H](CCCCN)C(=O)N[C@H](C(=O)N[C@@H](CCCNC(=N)N)C(=O)N[C@@H](CCC(N)=O)C(=O)N[C@@H](CCC(N)=O)C(=O)N[C@@H](CC(=O)O)C(=O)N[C@@H](Cc1ccccc1)C(=O)N[C@H](C(=O)N[C@@H](CC(N)=O)C(=O)N[C@@H](Cc1c[nH]c2ccccc12)C(=O)N[C@@H](CC(C)C)C(=O)N[C@@H](CC(C)C)C(=O)N[C@@H](C)C(=O)N[C@@H](CCC(N)=O)C(=O)N[C@@H](CCCNC(=N)N)C(N)=O)C(C)C)[C@@H](C)CC` [GIPA-1, mouse GIP(3–30)NH2], for which the pIC50 at mouse GIP receptor was 6.32.

As to “(Pro3)-GIP: GIPR antagonist subsequently found to also possess partial agonist properties (YAPGTFISDYSIAMDKIHQQDFVNWLLAQKGKKNDWKHNITQ; Gastric inhibitory polypeptide; UniProt P09681 52-93, looked up, variant E3P)”, in the data set on GIPR, the GIPR agonist/antagonist character entry is “originally characterized as an antagonist but was subsequently found to also possess partial agonist properties”.

For the compound “GIP(3–30)NH2: N-terminally truncated form of GIP, potent peptide-based antagonist; species not stated (EGTFISDYSIAMDKIHQQDFVNWLLAQK-NH2; UniProt P09681 54-81, looked up, fragment)”, the GIPR antagonist potency entry in the data set on GIPR was “potent peptide-based antagonist”.

As for “mouse GIP: Mouse GIP was sourced from Phoenix Pharmaceuticals (YAEGTFISDYSIAMDKIRQQDFVNWLLAQRGKKSDWKHNITQ; Gastric inhibitory polypeptide; UniProt P48756 44-85, looked up)”, the “glucose tolerance (IPGTT)” value in data set [2] (5 mg/kg GIPA-2 SC 60 min and/or 0.1 mg/kg mouse GIP SC 15 min before ip glucose 1.5 g/kg) is “significantly improved glucose tolerance”. The plasma insulin entry is “This effect was not observed” in data set [2] (15 and 240 min timepoints); “robust increase in plasma insulin” in data set [2] (15 minutes after mouse GIP, just prior to glucose bolus (0 min), 5 mg/kg GIPA-2 SC).

The values are drawn from paper PMC8011784, “Chronic peptide-based GIP receptor inhibition exhibits modest glucose metabolic changes in mice when administered either alone or combined with GLP-1 agonism” (PLoS ONE, 2021).
